test system: BEAS-2B cells; experiment: Toxicity: compound concentration needed to induce greater than 50 percent of cell loss; type: cell-based, human; conditions: 18 hours incubation
Procedure, shortened: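 BEAS-2B cells stably expressing TFEB-EGFP treated with serial compound dilutions for 18 h, then PFA-fixed, DAPI-stained and imaged. Toxicity scored as the concentration causing >50% cell loss, binned as ≥25 μM, <25 and >1 μM, or ≤1 μM ("+++").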

| SMILES | toxicity (compound concentration needed to induce greater than 50 percent of cell loss) |
| --- | --- |
| c1cnc2cc(-c3ccncc3)nc(Nc3ccc4[nH]ccc4c3)c2c1 [Compound 242] | + (cell loss of greater than 50 percent at a concentration that equals or is greater than 25 μM was represented as) |
| Cc1cc(C)cc(-n2c(=O)c3ccccc3n(CC(=O)Nc3c(C)cc(C)cc3C)c2=O)c1 [Compound 223] | + (cell loss of greater than 50 percent at a concentration that equals or is greater than 25 μM was represented as) |
| CCc1nc2ccc(Nc3nc(-c4ccncc4)nc4cccc(F)c34)cc2s1 [Compound 368] | + (cell loss of greater than 50 percent at a concentration that equals or is greater than 25 μM was represented as) |
| c1cnc2ccc(Nc3nc(-c4ccncc4)nc4ccncc34)cc2c1 [Compound 127] | + (cell loss of greater than 50 percent at a concentration that equals or is greater than 25 μM was represented as) |
| Cc1nc2ccc(Nc3nc(-c4ccncc4)nc4ccncc34)cc2o1 [Compound 140] | + (cell loss of greater than 50 percent at a concentration that equals or is greater than 25 μM was represented as) |
| FC(F)(F)c1nc2ccc(Nc3nc(-c4ccncc4)nc4ncccc34)cc2o1 [Compound 358] | + (cell loss of greater than 50 percent at a concentration that equals or is greater than 25 μM was represented as) |
| CCc1nc2ccc(Nc3nc(-c4ccncc4)nc4c(C)cccc34)cc2s1 [Compound 148] | + (cell loss of greater than 50 percent at a concentration that equals or is greater than 25 μM was represented as) |
| Cc1cc(F)cc(Nc2nc(-c3ccncc3)nc3ccccc23)c1 [Compound 184] | + (cell loss of greater than 50 percent at a concentration that equals or is greater than 25 μM was represented as) |
| CCc1ccc(-n2c(=O)c3ccc(C(=O)NCCc4ccccc4)cc3n(Cc3ccccc3C#N)c2=O)cc1 [Compound 231] | + (cell loss of greater than 50 percent at a concentration that equals or is greater than 25 μM was represented as) |
| c1ccc2c(Nc3ccc4[nH]ncc4c3)nc(-c3cc[nH]c3)nc2c1 [Compound 89] | ++ (cell loss of greater than 50 percent at a concentration less than 25 μM and greater than 1 μM was represented as) |
| c1ccc(Nc2nc(-c3ccncc3)nc3ccccc23)cc1 [Compound 179] | + (cell loss of greater than 50 percent at a concentration that equals or is greater than 25 μM was represented as) |
| c1ccc2c(Nc3ccc4cnsc4c3)nc(-c3ccncc3)nc2c1 [Compound 24] | + (cell loss of greater than 50 percent at a concentration that equals or is greater than 25 μM was represented as) |
| CCc1nc2ccc(Nc3nc(-c4ccncc4)nc4ccc(F)cc34)cc2s1 [Compound 151] | + (cell loss of greater than 50 percent at a concentration that equals or is greater than 25 μM was represented as) |
| FC1(F)Oc2ccc(Nc3nc(-c4ccncc4)nc4ccccc34)cc2O1 [Compound 17] | + (cell loss of greater than 50 percent at a concentration that equals or is greater than 25 μM was represented as) |
| CN(c1cccc(F)c1)c1nc(-c2ccncc2)nc2ccccc12 [Compound 4] | +++ (cell loss of greater than 50 percent at a concentration that equals or is less than 1 μM was represented as “+++.”) |
| OC1CCN(c2nc(-c3ccncc3)nc3ccccc23)CC1 [Compound 177] | + (cell loss of greater than 50 percent at a concentration that equals or is greater than 25 μM was represented as) |
| c1ccc2c(Nc3ccc4[nH]ccc4c3)cc(-c3ccncc3)nc2c1 [Compound 67] | + (cell loss of greater than 50 percent at a concentration that equals or is greater than 25 μM was represented as) |
| CC(=O)c1cc(C)cc(Nc2nc(-c3ccncc3)nc3ccccc23)c1 [Compound 52] | + (cell loss of greater than 50 percent at a concentration that equals or is greater than 25 μM was represented as) |
| Fc1cccc2c(Nc3ccc4nc(C5CC5)sc4c3)nc(-c3ccncc3)nc12 [Compound 373] | + (cell loss of greater than 50 percent at a concentration that equals or is greater than 25 μM was represented as) |
| CCc1nc2ccc(Nc3nc(-c4ccncc4)nc4ncccc34)cc2s1 [Compound 129] | + (cell loss of greater than 50 percent at a concentration that equals or is greater than 25 μM was represented as) |
| c1ccc2c(Nc3ccc4sncc4c3)nc(-c3cncs3)nc2c1 [Compound 392] | + (cell loss of greater than 50 percent at a concentration that equals or is greater than 25 μM was represented as) |
| Nc1ccc(Nc2nc(-c3ccncc3)nc3ccccc23)cc1 [Compound 56] | + (cell loss of greater than 50 percent at a concentration that equals or is greater than 25 μM was represented as) |
| c1ccc2c(Nc3ccc4cc[nH]c4c3)nc(-c3ccncc3)nc2c1 [Compound 25] | ++ (cell loss of greater than 50 percent at a concentration less than 25 μM and greater than 1 μM was represented as) |
| c1ccc2c(Nc3ccc4[nH]ncc4c3)nc(N3CCOCC3)nc2c1 [Compound 44] | + (cell loss of greater than 50 percent at a concentration that equals or is greater than 25 μM was represented as) |
| N#Cc1cccc(Nc2nc(-c3ccncc3)nc3ccccc23)c1 [Compound 186] | + (cell loss of greater than 50 percent at a concentration that equals or is greater than 25 μM was represented as) |
| Cc1ccc(NC(=O)Cn2c(=O)n(-c3ccccc3)c(=O)c3ccc(C(=O)NCc4ccco4)cc32)cc1 [Compound 219] | + (cell loss of greater than 50 percent at a concentration that equals or is greater than 25 μM was represented as) |
| Cc1nc2ccc(Nc3nc(-c4ccncc4)nc4c(F)cccc34)cc2s1 [Compound 381] | + (cell loss of greater than 50 percent at a concentration that equals or is greater than 25 μM was represented as) |
| c1ccc2c(Nc3ccc4[nH]nnc4c3)nc(-c3cncs3)nc2c1 [Compound 387] | + (cell loss of greater than 50 percent at a concentration that equals or is greater than 25 μM was represented as) |
| Cc1ccc(Nc2nc(-c3ccc(C)cc3)nc3ccccc23)cc1 [Compound 197] | + (cell loss of greater than 50 percent at a concentration that equals or is greater than 25 μM was represented as) |

test system: TFEB; experiment: High content screen measuring TFEB nuclear accumulation (TFEB nuclear/cytosol ratio) in BEAS-2B cells stably expressing TFEB-EGFP; type: cell-based, human; conditions: 18 hours incubation
Procedure, shortened: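 BEAS-2B cells stably expressing TFEB-EGFP (~2300–2500 per well) pre-incubated 8 hours, then exposed to serially diluted compounds (DMEM low glucose, 2% FBS) for 18 hours, PFA-fixed and DAPI-stained. Imaged nuclear (DAPI mask) vs cytosolic (expanded mask) TFEB-GFP; activity = minimal concentration raising nuclear/cytosol ratio by 25%.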

| SMILES | efficacy (minimal compound concentration needed to increase TFEB nuclear/cytosol ratio by 25%) |
| --- | --- |
| c1cnc2cc(-c3ccncc3)nc(Nc3ccc4[nH]ccc4c3)c2c1 [Compound 242] | +++ (“+++” equals ≤1 μM) |
| Cc1cc(C)cc(-n2c(=O)c3ccccc3n(CC(=O)Nc3c(C)cc(C)cc3C)c2=O)c1 [Compound 223] | + (“+” equals >25 μM) |
| CCc1nc2ccc(Nc3nc(-c4ccncc4)nc4cccc(F)c34)cc2s1 [Compound 368] | ++ (“++” equals between ≤25 μM and >1 μM) |
| c1cnc2ccc(Nc3nc(-c4ccncc4)nc4ccncc34)cc2c1 [Compound 127] | ++ (“++” equals between ≤25 μM and >1 μM) |
| Cc1nc2ccc(Nc3nc(-c4ccncc4)nc4ccncc34)cc2o1 [Compound 140] | + (“+” equals >25 μM) |
| FC(F)(F)c1nc2ccc(Nc3nc(-c4ccncc4)nc4ncccc34)cc2o1 [Compound 358] | ++ (“++” equals between ≤25 μM and >1 μM) |
| CCc1nc2ccc(Nc3nc(-c4ccncc4)nc4c(C)cccc34)cc2s1 [Compound 148] | +++ (“+++” equals ≤1 μM) |
| Cc1cc(F)cc(Nc2nc(-c3ccncc3)nc3ccccc23)c1 [Compound 184] | ++ (“++” equals between ≤25 μM and >1 μM) |
| CCc1ccc(-n2c(=O)c3ccc(C(=O)NCCc4ccccc4)cc3n(Cc3ccccc3C#N)c2=O)cc1 [Compound 231] | ++ (“++” equals between ≤25 μM and >1 μM) |
| c1ccc2c(Nc3ccc4[nH]ncc4c3)nc(-c3cc[nH]c3)nc2c1 [Compound 89] | ++ (“++” equals between ≤25 μM and >1 μM) |
| c1ccc(Nc2nc(-c3ccncc3)nc3ccccc23)cc1 [Compound 179] | ++ (“++” equals between ≤25 μM and >1 μM) |
| c1ccc2c(Nc3ccc4cnsc4c3)nc(-c3ccncc3)nc2c1 [Compound 24] | +++ (“+++” equals ≤1 μM) |
| CCc1nc2ccc(Nc3nc(-c4ccncc4)nc4ccc(F)cc34)cc2s1 [Compound 151] | +++ (“+++” equals ≤1 μM) |
| FC1(F)Oc2ccc(Nc3nc(-c4ccncc4)nc4ccccc34)cc2O1 [Compound 17] | + (“+” equals >25 μM) |
| CN(c1cccc(F)c1)c1nc(-c2ccncc2)nc2ccccc12 [Compound 4] | +++ (“+++” equals ≤1 μM) |
| OC1CCN(c2nc(-c3ccncc3)nc3ccccc23)CC1 [Compound 177] | + (“+” equals >25 μM) |
| c1ccc2c(Nc3ccc4[nH]ccc4c3)cc(-c3ccncc3)nc2c1 [Compound 67] | + (“+” equals >25 μM) |
| CC(=O)c1cc(C)cc(Nc2nc(-c3ccncc3)nc3ccccc23)c1 [Compound 52] | + (“+” equals >25 μM) |
| Fc1cccc2c(Nc3ccc4nc(C5CC5)sc4c3)nc(-c3ccncc3)nc12 [Compound 373] | ++ (“++” equals between ≤25 μM and >1 μM) |
| CCc1nc2ccc(Nc3nc(-c4ccncc4)nc4ncccc34)cc2s1 [Compound 129] | +++ (“+++” equals ≤1 μM) |
| c1ccc2c(Nc3ccc4sncc4c3)nc(-c3cncs3)nc2c1 [Compound 392] | + (“+” equals >25 μM) |
| Nc1ccc(Nc2nc(-c3ccncc3)nc3ccccc23)cc1 [Compound 56] | ++ (“++” equals between ≤25 μM and >1 μM) |
| c1ccc2c(Nc3ccc4cc[nH]c4c3)nc(-c3ccncc3)nc2c1 [Compound 25] | +++ (“+++” equals ≤1 μM) |
| c1ccc2c(Nc3ccc4[nH]ncc4c3)nc(N3CCOCC3)nc2c1 [Compound 44] | +++ (“+++” equals ≤1 μM) |
| N#Cc1cccc(Nc2nc(-c3ccncc3)nc3ccccc23)c1 [Compound 186] | +++ (“+++” equals ≤1 μM) |
| Cc1ccc(NC(=O)Cn2c(=O)n(-c3ccccc3)c(=O)c3ccc(C(=O)NCc4ccco4)cc32)cc1 [Compound 219] | + (“+” equals >25 μM) |
| Cc1nc2ccc(Nc3nc(-c4ccncc4)nc4c(F)cccc34)cc2s1 [Compound 381] | +++ (“+++” equals ≤1 μM) |
| c1ccc2c(Nc3ccc4[nH]nnc4c3)nc(-c3cncs3)nc2c1 [Compound 387] | + (“+” equals >25 μM) |
| Cc1ccc(Nc2nc(-c3ccc(C)cc3)nc3ccccc23)cc1 [Compound 197] | + (“+” equals >25 μM) |
